# Reference: US20030027765A1, “Therapeutic peptides having a motif that binds specifically to non-acetylated H3 and H4 histones for cancer therapy” (priority 2000, published 2003)
# “Also recorded” adds a separate entry of the source.
# Legend:
# histone H4 [1] = biological target: T1, histone H4 (Homo sapiens, UniProt P62805); test: histone H4 acetylation in Na-butyrate treated MCF-7 cells (immunoblot); assay type: cell-based; settings: absence of lunasin
# T1 construct: endogenous in cells; host or cells: MCF-7
# Text: (§1) Deacetylated histones are substrates for histone acetylation and for chromatin remodelling which has been associated with eukaryotic transcriptional regulatory mechanisms (K Struhl, Genes Dev., vol. 12, 599,1998; M. Grunstein, Nature, vol. 389,349, 1997).
# histone H4 [2] = biological target: T2, histone H4 (Mus musculus, UniProt P62806); test: histone H4 acetylation in Na-butyrate treated C3H cells (immunoblot); assay type: cell-based, murine; settings: absence of lunasin
# T2 construct: endogenous in cells; host or cells: C3H 10T1/2 mouse embryo fibroblasts
# Text: as §1
# histone H3 [3] = test: histone H3 acetylation in Na-butyrate treated C3H cells (immunoblot); assay type: cell-based, murine
# Text: as §1
# histone H3 [4] = test: histone H3 acetylation in Na-butyrate treated MCF-7 cells (immunoblot); assay type: cell-based, human
# Text: as §1
# [5] = biological target: deacetylated H4 N-terminal tail peptide; test: in vitro immuno-binding assay, increasing dose of deacetylated H4 peptide (FIG. 10)
# [6] = biological target: histone H3 in MCF-7 cells (human)
# [7] = system: mice embryo fibroblast cells (C3H 10T½); test: cell adhesion assay with synthetic lunasin peptides; assay type: cell-based; settings: C3H 10T½ cells, FIG. 2
# Text: (§2) Lunasin contains the cell adhesion motif RGD (arg-gly-asp). […] However, at this stage of mitosis, kinetochore assembly and spindle fiber attachment to centromeres had already transpired.
# [8] = biological target: T3, deacetylated H4 N-terminal tail (Homo sapiens, UniProt P62805); test: in vitro immuno-binding assay, deacetylated H4; settings: for binding to deacetylated H4 N-terminus: FIG. 9
# T3 construct: using acetylated and deacetylated forms of the H4 N-terminal tail
# tetra-acetylated H4 = biological target: T4, tetra-acetylated H4 (Homo sapiens, UniProt P62805); test: in vitro immuno-binding assay, tetra-acetylated H4; settings: FIG. 9
# T4 construct: using acetylated and deacetylated forms of the H4 N-terminal tail
# [9] = system: murine embryo fibroblast cells; test: exogenous application of lunasin to growth media, immunostaining; assay type: cell-based
# Text: as §2
# C3H cells = test: lunasin treatment followed by E1A oncogene transfection (apoptosis); assay type: cell-based, murine; settings: 20 h after transfection
# Text: As a negative control, E1A with deleted conserved region 1 (E1AΔCR1) that abolishes the RB binding domain was likewise used in the transfection experiments (D. Trouche, T. Kouzidares, Proc. Natl. Acad. Sci., USA, vol. 93, 1439 (1996)).
# C3H 10 T½ cells = test: cell transformation assay (carcinogen-induced foci formation); assay type: cell-based, murine; settings: FIG. 6, FIG. 12
# [10] = treated with lunasin for 24 h, then E1Awt
compound,measurement,setting,value
"CCCC(=O)[O-].[Na+] [Na-butyrate, reference compound]",increase of histone H4 acetylation,histone H4 [1],200 fold
same,increase of histone H4 acetylation,histone H4 [2],200 fold
same,increase of H3 acetylation,"histone H3 [3]; C3H cells, Na-butyrate treatment",100 fold
same,increase of H3 acetylation,"histone H3 [4]; MCF-7 cells, Na-butyrate treatment",around 400 fold
Lunasin peptide,binding against trLunasin-del,[5],3 x
same,"acetylated H3 on immunoblots of acid-extracted proteins, Na-butyrate treated MCF-7 cells",[6],4 fold
Lunasin-GRG: lunasin with deleted RGD motif (SKWQHQQDSCRKQLQGVNLTPCEKHIMEKIQGDDDDDDDD),cell adhesion to C3H cells,[7],prevented cell adhesion
same,binding to deacetylated H4 N-terminus,[8],high affinity
same,binding to tetra-acetylated H4,tetra-acetylated H4,not to the tetra-acetylated H4
NLS-trLunasin: truncated lunasin peptide with the helix substituted by a nuclear localization sequence (NLS) (LEEKQKKKMEKEQGRGDDDDDDDDD; Glycine max; NLS-trLunasin),binding to deacetylated H4 N-terminus,[8],loss of binding to deacetylated H4
Ser-Lys-Trp-Gln-His-Gln-Gln-Asp-Ser-Cys-Arg-Lys-Gln-Leu-Gln-Gly-Val-Asn-Leu-Thr-Pro-Cys-Glu-Lys-His-Ile-Met-Glu-Lys-Ile-Gln-Gly-Arg-Gly-Asp -Asp-Asp-Asp-Asp-Asp-Asp-Asp-Asp [Lunasin],internalization into cells,"[9]; applied exogenously to the growth media, FIG. 3",became internalized
same,chromosomal binding site of internalized peptide,"[9]; applied exogenously, metaphase",preferentially binding to the telomeres of chromosomes during metaphase
same,effect on cell division and proliferation,[9]; exogenous application,did not affect cell division and proliferation
same,effect on kinetochore assembly,[9]; internalized lunasin,did not affect kinetochore assembly
same,cell adhesion to C3H cells,[7],adhered to C3H cells in a dose-dependent manner
same,cell state after E1A-ΔCR1 transfection,C3H cells; presence of lunasin,normally dividing cells
same,Annexin V staining of non-adherent cells (apoptosis),C3H cells; [10],positive fluorescent staining for Annexin V-HITC
same,cell state after E1Awt transfection,C3H cells; [10],preponderance of non-adherent cells
same,Na-butyrate-induced increase in H3 acetylation upon addition of lunasin,histone H3 [3]; C3H cells,no observed increase
same,acetylated H3 on immunoblots of acid-extracted proteins,"histone H3 [3]; Na-butyrate treated C3H cells pretreated with 1 μM lunasin, FIG. 13",significant reduction
same,reduction of H3 acetylation,"histone H3 [4]; MCF-7 cells, lunasin added prior to Na-butyrate treatment",4 fold
same,acetylated H3 on immunoblots of acid-extracted proteins,"histone H3 [4]; Na-butyrate treated MCF-7 cells pretreated with 1 μM lunasin, FIG. 13",significant reduction
trLunasin-del: 10 amino acid peptide fragment spanning a helical domain upstream of the poly-aspartyl carboxyl end of lunasin (EKHIMEKIQG; Glycine max; trLunasin-del),binding affinity to deacetylated H4 relative to NLS-trLunasin,[8]; FIG. 10,significantly higher affinity
trLunasin: truncated lunasin that contains only the reactive carboxyl end of the peptide (EKHIMEKIQGRGDDDDDDDDD; Glycine max; trLunasin),binding affinity to deacetylated H4 relative to trLunasin-del,[8],not significantly different
same,binding to deacetylated H4 N-terminus,[8],significant reduction in deacetylated H4 binding; also recorded: lower binding affinity
same,anti-transformation property / efficacy in preventing foci transformation,C3H 10 T½ cells,reduced efficacy
